These results are taken from ChEMBL document CHEMBL4665822, “Structure-Guided Optimization of Dipeptidyl Inhibitors of Norovirus 3CL Protease” (J Med Chem, 2020).

Bounds are passed on as bounds.

A short description of data set [1]: Cytotoxicity against human HG23 cells assessed as reduction cell viability after 48 hrs by CytoTox 96 nonradioactive assay. Type of data set: cell-based.
Data set [2] in a line: Inhibition of Norovirus 3CL protease using Edans-DFHLQ/GPDabcyl preincubated for 30 mins followed by substrate addition and measured after 1 hr by FRET assay.
Another data set has as its system Norovirus. The data set can be described thus: Antiviral activity against Norovirus replicon infected in human HG23 cells assessed as reduction in viral RNA level after 48 hrs by qRT-PCR analysis. As to conditions: HG23, 48 h. Type of data set: functional, cell-based.

On to `CC(C)C[C@H](NC(=O)OCC(C)(C)c1ccccc1)C(=O)N[C@@H](C[C@@H]1CCNC1=O)C(O)S(=O)(=O)O` (some centres not stated), for which the cytotoxic concentration (CC50) at 48 h in data set [1] is greater than 100000 nM. The half-maximal inhibitory concentration (IC50) in data set [2] was determined as 400 nM. The half-maximal effective concentration (EC50) with Norovirus was determined as 450 nM.
In the same order, the values of `CC(C)C[C@H](NC(=O)OCC(C)(C)c1ccccc1)C(=O)N[C@H](C=O)C[C@@H]1CCNC1=O` are greater than 100000 nM, 450 nM and 650 nM.
As for `O=C(N[C@@H](CC1CCCCC1)C(=O)N[C@@H](C[C@@H]1CCNC1=O)C(O)S(=O)(=O)O)OCCCc1cccc(Cl)c1` (some centres not stated), the EC50 with Norovirus was 60 nM.
As to `CC(C)(Cc1cccc(Cl)c1)OC(=O)N[C@@H](CC1CCCCC1)C(=O)N[C@@H](C[C@@H]1CCNC1=O)C(O)S(=O)(=O)O` (some centres not stated), the 50% cytotoxic concentration (CC50) at 48 h in data set [1] came out at 20400 nM. The compound further gave a concentration for half-maximal inhibition (IC50) in data set [2] of 6800 nM. The 50% effective concentration (EC50) in the data set on Norovirus worked out at 2900 nM.
Take `CC(C)C[C@H](NC(=O)OC/C=C/c1cccc(Cl)c1)C(=O)N[C@H](C=O)C[C@@H]1CCNC1=O`: in data set [1], the cytotoxic concentration (CC50) at 48 h was greater than 100000 nM. Further, in data set [2], the IC50 was 150 nM. Also, in the data set on Norovirus, the concentration for a half-maximal effect (EC50) came out at 80 nM.
Take `O=C[C@H](C[C@@H]1CCNC1=O)NC(=O)[C@H](CC1CCCCC1)NC(=O)OC/C=C/c1cccc(Cl)c1`: the cytotoxic concentration (CC50) at 48 h in data set [1] stood at 24100 nM. Also, the IC50 in data set [2] is 140 nM. In the data set with Norovirus, the half-maximal effective concentration (EC50) came to 60 nM.
As for `CC(C)(Cc1cccc(Cl)c1)OC(=O)N[C@@H](CC1CCCCC1)C(=O)N[C@H](C=O)C[C@@H]1CCNC1=O`, in data set [1], the CC50 at 48 h is 15600 nM. For the same compound, the IC50 in data set [2] amounted to 7700 nM. In the data set on Norovirus, the EC50 was found to be 5400 nM.
Consider `O=C[C@H](C[C@@H]1CCNC1=O)NC(=O)[C@H](CC1CCCCC1)NC(=O)OC1(c2cccc(Cl)c2)CC1`, for which the half-maximal cytotoxic concentration (CC50) at 48 h in data set [1] is 36500 nM. This compound displayed a 50% inhibitory concentration (IC50) in data set [2] of 280 nM. Further, the half-maximal effective concentration (EC50) in the data set on Norovirus was 250 nM.
Taken in the same sequence, the figures for `O=C(N[C@@H](CC1CCCCC1)C(=O)N[C@@H](C[C@@H]1CCNC1=O)C(O)S(=O)(=O)O)OC1(c2cccc(Cl)c2)CC1` (some centres not stated) were 42300 nM, 270 nM and 180 nM.
In the same order, the values of `CC(=O)OC([C@H](C[C@@H]1CCNC1=O)NC(=O)[C@H](CC(C)C)NC(=O)OCC(C)(C)c1cccc(Cl)c1)S(=O)(=O)O` (some centres not stated) are greater than 100000 nM, 130 nM and 450 nM.
Regarding `CC(C)C[C@H](NC(=O)OCCCc1cccc(Cl)c1)C(=O)N[C@@H](C[C@@H]1CCNC1=O)C(O)S(=O)(=O)O` (some centres not stated), in data set [1], the 50% cytotoxic concentration (CC50) at 48 h was greater than 100000 nM. Half-maximal inhibition in data set [2] (IC50) required 190 nM. Also, the EC50 with Norovirus is 90 nM.
With `CC(C)C[C@H](NC(=O)OCC(C)(C)c1cccc(Cl)c1)C(=O)N[C@@H](C[C@@H]1CCNC1=O)C(O)S(=O)(=O)O` (some centres not stated), the CC50 at 48 h in data set [1] is greater than 100000 nM. The same compound had an IC50 in data set [2] of 300 nM. For the same compound, the concentration for a half-maximal effect (EC50) in the data set on Norovirus was determined as 190 nM.
In the same order, the values of `CCC(=O)OC([C@H](C[C@@H]1CCNC1=O)NC(=O)[C@H](CC1CCCCC1)NC(=O)OCC(C)(C)c1cccc(Cl)c1)S(=O)(=O)O` (some centres not stated) are 70500 nM, 70 nM and 220 nM.
Taken in the same sequence, the figures for `CC(C)C[C@H](NC(=O)OCCCc1ccccc1)C(=O)N[C@@H](C[C@@H]1CCNC1=O)C(O)S(=O)(=O)O` (some centres not stated) were greater than 100000 nM, 600 nM and 850 nM.
On to `CC(C)C[C@H](NC(=O)OCC(C)(C)c1cccc(Cl)c1)C(=O)N[C@H](C=O)C[C@@H]1CCNC1=O`, for which, in data set [1], the CC50 at 48 h is greater than 100000 nM. In addition, the 50% inhibitory concentration (IC50) in data set [2] amounted to 270 nM. In addition, in the data set on Norovirus, the EC50 amounted to 170 nM.
As for `CC(C)(COC(=O)N[C@@H](CC1CCCCC1)C(=O)N[C@H](C=O)C[C@@H]1CCNC1=O)c1cccc(Cl)c1`, the CC50 at 48 h in data set [1] was found to be 13300 nM. 230 nM corresponded to half-maximal inhibition in data set [2] (IC50). In the data set with Norovirus, the EC50 was determined as 70 nM.
`CC(C)C[C@H](NC(=O)OC1(c2cccc(Cl)c2)CC1)C(=O)N[C@@H](C[C@@H]1CCNC1=O)C(O)S(=O)(=O)O` (some centres not stated): in data set [1], the CC50 at 48 h is greater than 100000 nM. This compound also registered a 50% inhibitory concentration (IC50) in data set [2] of 250 nM. Also, in the data set on Norovirus, the EC50 is 550 nM.
As to `CC(C)C[C@H](NC(=O)OCCCc1cccc(Cl)c1)C(=O)N[C@H](C=O)C[C@@H]1CCNC1=O`, the CC50 at 48 h in data set [1] is greater than 100000 nM. The half-inhibitory concentration (IC50) in data set [2] was 260 nM. Besides, the EC50 with Norovirus was 160 nM.
In the same order, the values of `CC(C)C[C@H](NC(=O)OC(C)(C)c1cccc(Cl)c1)C(=O)N[C@@H](C[C@@H]1CCNC1=O)C(O)S(=O)(=O)O` (some centres not stated) are greater than 100000 nM, 3300 nM and 1800 nM.
Taken in the same sequence, the figures for `CC(C)(COC(=O)N[C@@H](CC1CCCCC1)C(=O)N[C@@H](C[C@@H]1CCNC1=O)C(O)S(=O)(=O)O)c1ccccc1` (some centres not stated) were 83900 nM, 320 nM and 500 nM.
`CC(C)(OC(=O)N[C@@H](CC1CCCCC1)C(=O)N[C@H](C=O)C[C@@H]1CCNC1=O)c1cccc(Cl)c1`: in data set [1], the CC50 at 48 h is greater than 100000 nM. Moreover, it took 2900 nM to reach half-maximal inhibition in data set [2] (IC50). Moreover, in the data set on Norovirus, the concentration for a half-maximal effect (EC50) was 3700 nM.
For `CC(C)C[C@H](NC(=O)OC(C)(C)Cc1cccc(Cl)c1)C(=O)N[C@@H](C[C@@H]1CCNC1=O)C(O)S(=O)(=O)O` (some centres not stated), in data set [1], the half-maximal cytotoxic concentration (CC50) at 48 h was greater than 100000 nM. In data set [2], this compound had a half-maximal inhibitory concentration (IC50) of 1000 nM. Moreover, in the data set on Norovirus, the EC50 is 700 nM.
Regarding `O=C[C@H](C[C@@H]1CCNC1=O)NC(=O)[C@H](CC1CCCCC1)NC(=O)OCCCc1cccc(Cl)c1`, the CC50 at 48 h in data set [1] was determined as 30300 nM. Besides, the concentration for a half-maximal effect (EC50) in the data set with Norovirus amounted to 80 nM.
With `CC(C)(OC(=O)N[C@@H](CC1CCCCC1)C(=O)N[C@@H](C[C@@H]1CCNC1=O)C(O)S(=O)(=O)O)c1cccc(Cl)c1` (some centres not stated), the 50% cytotoxic concentration (CC50) at 48 h in data set [1] is greater than 100000 nM. Also, 2700 nM corresponded to half-maximal inhibition in data set [2] (IC50). Moreover, the EC50 with Norovirus amounted to 2900 nM.
Taken in the same sequence, the figures for `CC(C)C[C@H](NC(=O)OCCCc1ccccc1)C(=O)N[C@H](C=O)C[C@@H]1CCNC1=O` were greater than 100000 nM, 750 nM and 770 nM.
Regarding `CCCCCC(=O)OC([C@H](C[C@@H]1CCNC1=O)NC(=O)[C@H](CC1CCCCC1)NC(=O)OCC(C)(C)Cc1cccc(Cl)c1)S(=O)(=O)O` (some centres not stated), in data set [1], the CC50 at 48 h turned out to be 20700 nM. The EC50 in the data set on Norovirus amounted to 80 nM.
For the compound `CC(C)(COC(=O)N[C@@H](CC1CCCCC1)C(=O)N[C@H](C=O)C[C@@H]1CCNC1=O)Cc1cccc(Cl)c1`, the CC50 at 48 h in data set [1] amounted to 14100 nM. The compound also yielded an IC50 in data set [2] of 110 nM. In addition, in the data set on Norovirus, the EC50 stood at 60 nM.
Take `CCC(=O)OC([C@H](C[C@@H]1CCNC1=O)NC(=O)[C@H](CC1CCCCC1)NC(=O)OCC(C)(C)Cc1cccc(Cl)c1)S(=O)(=O)O` (some centres not stated): the CC50 at 48 h in data set [1] was found to be 18400 nM. In data set [2], this compound came in with an IC50 of 340 nM. In the data set with Norovirus, the EC50 worked out at 100 nM.
With `O=C(N[C@@H](CC1CCCCC1)C(=O)N[C@@H](C[C@@H]1CCNC1=O)C(O)S(=O)(=O)O)OC/C=C/c1cccc(Cl)c1` (some centres not stated), the CC50 at 48 h in data set [1] came to 28300 nM. Moreover, 160 nM corresponded to half-maximal inhibition in data set [2] (IC50). Further, in the data set with Norovirus, the 50% effective concentration (EC50) was found to be 70 nM.
In the same order, the values of `CC(C)(COC(=O)N[C@@H](CC1CCCCC1)C(=O)N[C@@H](C[C@@H]1CCNC1=O)C(O)S(=O)(=O)O)c1cccc(Cl)c1` (some centres not stated) are 14300 nM, 200 nM and 80 nM.
For the compound `CC(C)C[C@H](NC(=O)OC1(c2cccc(Cl)c2)CC1)C(=O)N[C@H](C=O)C[C@@H]1CCNC1=O`, the CC50 at 48 h in data set [1] was greater than 100000 nM. In data set [2], the IC50 was 280 nM. Also, in the data set on Norovirus, the EC50 worked out at 650 nM.
For `CC(C)(COC(=O)N[C@@H](CC1CCCCC1)C(=O)N[C@@H](C[C@@H]1CCNC1=O)C(O)S(=O)(=O)O)Cc1cccc(Cl)c1` (some centres not stated), in data set [1], the cytotoxic concentration (CC50) at 48 h was found to be 16200 nM. In addition, inhibition in data set [2] was half-maximal at 140 nM (IC50). Besides, in the data set with Norovirus, the EC50 worked out at 70 nM.
As for `CC(C)C[C@H](NC(=O)OC(C)(C)Cc1cccc(Cl)c1)C(=O)N[C@H](C=O)C[C@@H]1CCNC1=O`, in data set [1], the CC50 at 48 h is greater than 100000 nM. For the same compound, in data set [2], inhibition was half-maximal at 1200 nM (IC50). For the same compound, in the data set on Norovirus, the concentration for a half-maximal effect (EC50) was found to be 900 nM.
As to `CC(C)C[C@H](NC(=O)OC/C=C/c1cccc(Cl)c1)C(=O)N[C@@H](C[C@@H]1CCNC1=O)C(O)S(=O)(=O)O` (some centres not stated), the cytotoxic concentration (CC50) at 48 h in data set [1] is greater than 100000 nM. The same compound came in with an IC50 in data set [2] of 110 nM. Further, the EC50 with Norovirus was 80 nM.
As for `CC(C)C[C@H](NC(=O)OC(C)(C)c1cccc(Cl)c1)C(=O)N[C@H](C=O)C[C@@H]1CCNC1=O`, in data set [1], the cytotoxic concentration (CC50) at 48 h was greater than 100000 nM. The IC50 in data set [2] was 3800 nM. For the same compound, in the data set with Norovirus, the EC50 was 3500 nM.
`CC(=O)OC([C@H](C[C@@H]1CCNC1=O)NC(=O)[C@H](CC1CCCCC1)NC(=O)OCC(C)(C)c1cccc(Cl)c1)S(=O)(=O)O` (some centres not stated): the half-maximal cytotoxic concentration (CC50) at 48 h in data set [1] stood at 67000 nM. Inhibition in data set [2] was half-maximal at 90 nM (IC50). In addition, the half-maximal effective concentration (EC50) with Norovirus was 150 nM.
Taken in the same sequence, the figures for `CC(C)(COC(=O)N[C@@H](CC1CCCCC1)C(=O)N[C@H](C=O)C[C@@H]1CCNC1=O)c1ccccc1` were 80100 nM, 450 nM and 600 nM.
